Test results reported in patent publication US6914045B2, “Glycopeptide antibiotics” (Wyeth Holdings Corporation, priority 2001, dated 2005).
In brackets after ≈: the same amount, converted by molar mass.

Key:
Assay in all cases: in vitro antibacterial evaluation, MIC by broth dilution
Format in all cases: cell-based
[1] = tested on: Escherichia coli; conditions: 18 hours at 35° C.
[2] = tested on: Staphylococcus sp.; conditions: broth dilution, 18 hours at 35° C.; for MIC Staphylococcus aureus (GC 1131): strain GC 1131
Summary of the method: (§1)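 Inoculum 5×10^5 CFU/mL; concentrations 64 to 0.06 μg/mL; MIC defined as lowest inhibitory level. Conducted by broth dilution under NCCLS guidelines.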

[3] = tested on: Streptococcus sp.; conditions: broth dilution, 18 hours at 35° C.
Summary of the method: as §1

[4] = tested on: Enterococcus sp.; conditions: broth dilution, 18 hours at 35° C.
Summary of the method: as §1

## CC(c1ccc(Cl)cc1)C1NC(=O)CNC(=O)C(CO)NC(=O)C(C(O)C2CNC(=N)N2C2OC(CO)C(O)C(O)C2O)NC(=O)C(C(O)C2CNC(=N)N2)NC(=O)C(Cc2ccc(OC3OC(CO)C(OC4OC5COC(C6CCCCC6)OC5C(O)C4O)C(O)C3O)cc2)NC1=O (stereo not shown) [Example 193]
[1]
  MIC Escherichia coli (GC 4559): 32 µg/mL (≈ 22.5 µM)
  MIC Escherichia coli (GC 4560): 2 µg/mL (≈ 1.4 µM)
[2]; inoculum 5×10^5 CFU/mL
  MIC Staphylococcus aureus (GC 1131): 1 µg/mL (≈ 0.702 µM)
[2]; strain ATCC 29213
  MIC Staphylococcus aureus (ATCC 29213): 0.5 µg/mL (≈ 0.351 µM)
[2]
  MIC Staphylococcus aureus (GC 1131): 1 µg/mL (≈ 0.702 µM)
[2]; strain GC 3051
  MIC Staphylococcus aureus (GC 3051): 1 µg/mL (≈ 0.702 µM)
[2]; strain GC 3053
  MIC Staphylococcus aureus (GC 3053): 0.5 µg/mL (≈ 0.351 µM)
[2]; strain GC 4541
  MIC Staphylococcus aureus (GC 4541): 0.5 µg/mL (≈ 0.351 µM)
[2]; strain GC 4542
  MIC Staphylococcus aureus (GC 4542): 0.25 µg/mL (≈ 0.176 µM)
[2]; strain GC 4543
  MIC Staphylococcus aureus-SMITH (GC 4543): 0.5 µg/mL (≈ 0.351 µM)
[2]; strain GC 4544
  MIC Staphylococcus aureus (GC 4544): 1 µg/mL (≈ 0.702 µM)
[2]; strain GC 4545
  MIC Staphylococcus aureus (GC 4545): 0.5 µg/mL (≈ 0.351 µM)
[2]; strain GC 4546
  MIC Staphylococcus haemolyticus (GC 4546): 0.5 µg/mL (≈ 0.351 µM)
[2]; strain GC 4547
  MIC Coagulase Negative Staphylococcus (GC 4547): 1 µg/mL (≈ 0.702 µM)
[2]; strain GC 4548
  MIC Coagulase Negative Staphylococcus (GC 4548): 0.25 µg/mL (≈ 0.176 µM)
[2]; strain GC 4549
  MIC Coagulase Negative Staphylococcus (GC 4549): 0.25 µg/mL (≈ 0.176 µM)
[2]; strain GC 4551
  MIC Coagulase Negative Staphylococcus (GC 4551): 0.5 µg/mL (≈ 0.351 µM)
[2]; strain GC 6257
  MIC Coagulase Negative Staphylococcus (GC 6257): 0.25 µg/mL (≈ 0.176 µM)
[3]
  MIC Streptococcus agalactiae (GC 4564): <0.06 µg/mL
  MIC Streptococcus pneumoniae (ATCC 6301): 0.12 µg/mL (≈ 0.0843 µM)
  MIC Streptococcus pneumoniae (GC 1894): <0.06 µg/mL
  MIC Streptococcus pneumoniae (GC 4565): <0.06 µg/mL
  MIC Streptococcus pyogenes (GC 4563): <0.06 µg/mL
[3]; inoculum 5×10^5 CFU/mL, strain ATCC 6301
  MIC Streptococcus pneumoniae (ATCC 6301): 0.12 µg/mL (≈ 0.0843 µM)
[3]; inoculum 5×10^5 CFU/mL, strain GC 1894
  MIC Streptococcus pneumoniae (GC 1894): <0.06 µg/mL
[3]; inoculum 5×10^5 CFU/mL, strain GC 4563
  MIC Streptococcus pyogenes (GC 4563): <0.06 µg/mL
[3]; inoculum 5×10^5 CFU/mL, strain GC 4564
  MIC Streptococcus agalactiae (GC 4564): <0.06 µg/mL
[3]; inoculum 5×10^5 CFU/mL, strain GC 4565
  MIC Streptococcus pneumoniae (GC 4565): <0.06 µg/mL
[4]
  MIC Enterococcus avium (GC 4558): 2 µg/mL (≈ 1.4 µM)
  MIC Enterococcus faecalis (ATCC 29212): 1 µg/mL (≈ 0.702 µM)
  MIC Enterococcus faecalis (GC 2242): 1 µg/mL (≈ 0.702 µM)
  MIC Enterococcus faecalis (GC 2691): 2 µg/mL (≈ 1.4 µM)
  MIC Enterococcus faecalis (GC 3059): 1 µg/mL (≈ 0.702 µM)
  MIC Enterococcus faecalis (GC 4552): 1 µg/mL (≈ 0.702 µM)
  MIC Enterococcus faecalis (GC 4553): 2 µg/mL (≈ 1.4 µM)
  MIC Enterococcus faecalis (GC 4554): 2 µg/mL (≈ 1.4 µM)
  MIC Enterococcus faecalis (GC 6189): 0.5 µg/mL (≈ 0.351 µM)
  MIC Enterococcus faecium (GC 2243): 1 µg/mL (≈ 0.702 µM)
  MIC Enterococcus faecium (GC 4556): 1 µg/mL (≈ 0.702 µM)
  MIC Enterococcus faecium (GC 4557): 2 µg/mL (≈ 1.4 µM)
[4]; inoculum 5×10^5 CFU/mL, strain ATCC 29212
  MIC Enterococcus faecalis (ATCC 29212): 1 µg/mL (≈ 0.702 µM)
[4]; inoculum 5×10^5 CFU/mL, strain GC 2242
  MIC Enterococcus faecalis (GC 2242): 1 µg/mL (≈ 0.702 µM)
[4]; inoculum 5×10^5 CFU/mL, strain GC 2243
  MIC Enterococcus faecium (GC 2243): 1 µg/mL (≈ 0.702 µM)
[4]; inoculum 5×10^5 CFU/mL, strain GC 2691
  MIC Enterococcus faecalis (GC 2691): 2 µg/mL (≈ 1.4 µM)
[4]; inoculum 5×10^5 CFU/mL, strain GC 3059
  MIC Enterococcus faecalis (GC 3059): 1 µg/mL (≈ 0.702 µM)
[4]; inoculum 5×10^5 CFU/mL, strain GC 4552
  MIC Enterococcus faecalis (GC 4552): 1 µg/mL (≈ 0.702 µM)
[4]; inoculum 5×10^5 CFU/mL, strain GC 4553
  MIC Enterococcus faecalis (GC 4553): 2 µg/mL (≈ 1.4 µM)
[4]; inoculum 5×10^5 CFU/mL, strain GC 4554
  MIC Enterococcus faecalis (GC 4554): 2 µg/mL (≈ 1.4 µM)
[4]; inoculum 5×10^5 CFU/mL, strain GC 4556
  MIC Enterococcus faecium (GC 4556): 1 µg/mL (≈ 0.702 µM)
[4]; inoculum 5×10^5 CFU/mL, strain GC 4557
  MIC Enterococcus faecium (GC 4557): 2 µg/mL (≈ 1.4 µM)
[4]; inoculum 5×10^5 CFU/mL, strain GC 4558
  MIC Enterococcus avium (GC 4558): 2 µg/mL (≈ 1.4 µM)
[4]; inoculum 5×10^5 CFU/mL, strain GC 6189
  MIC Enterococcus faecalis (GC 6189): 0.5 µg/mL (≈ 0.351 µM)
